We go through six molecules from ChEMBL document CHEMBL1148535, “Hexylitaconic acid: a new inhibitor of p53-HDM2 interaction isolated from a marine-derived fungus, Arthrinium sp” (Bioorg Med Chem Lett, 2006).

A word on the IC50: it is the concentration needed to halve the response being measured. A lower IC50 goes with higher potency.

Each structure is given as a SMILES string. Calls of active or inactive are those of the source. The rule behind the calls is not given here.

In the first test the target is T1, E3 ubiquitin-protein ligase Mdm2 (Homo sapiens, UniProt Q00987). In words: Inhibition of p53-HDM2 interaction.
Target sequence in this assay (Q00987 whole entry): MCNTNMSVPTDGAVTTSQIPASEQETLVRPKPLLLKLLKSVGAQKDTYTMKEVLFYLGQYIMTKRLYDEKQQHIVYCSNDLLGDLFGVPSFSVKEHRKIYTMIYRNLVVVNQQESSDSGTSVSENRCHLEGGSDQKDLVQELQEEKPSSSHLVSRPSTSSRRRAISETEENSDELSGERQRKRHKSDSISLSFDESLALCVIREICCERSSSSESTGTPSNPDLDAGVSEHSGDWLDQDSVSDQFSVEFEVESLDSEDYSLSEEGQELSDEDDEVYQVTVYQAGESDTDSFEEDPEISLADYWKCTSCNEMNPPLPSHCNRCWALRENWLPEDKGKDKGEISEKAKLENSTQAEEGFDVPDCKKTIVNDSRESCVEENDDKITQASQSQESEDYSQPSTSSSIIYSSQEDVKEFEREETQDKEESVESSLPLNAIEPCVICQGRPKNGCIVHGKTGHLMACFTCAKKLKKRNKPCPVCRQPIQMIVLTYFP
`C=C(C(=O)O)C(CCCCCC)C(=O)O` (stereo unspecified) [HEXYLITACONIC ACID] showed an IC50 of 233 µM.

A further test addresses T1, E3 ubiquitin-protein ligase Mdm2. In words: Inhibition of p53-HDM2 interaction at 50 ug/ml.
Target sequence in this assay (Q00987 whole entry, looked up): as the sequence (Q00987 whole entry) above
Take `C=C(CC(=O)O)C(=O)O`: the result was inactive. For the molecule `CCCCCCC(C(=O)O)C(C)C(=O)O` (stereo unspecified), the outcome was inactive.

With `C=C(C(=O)O)C(CCCCCC)C(=O)OC` (stereo unspecified), the outcome was inactive.

Take `O=C(O)CCC(=O)O`: the outcome was inactive. For `CCCCCCC(C(=O)OC)C(C)C(=O)O` (stereo unspecified), the result was inactive.
